{"source": "patent US20230079439A1", "about": "“Compositions and Methods for Enhancing Beta Cell Maturation, Health and Function” (THE REGENTS OF THE UNIVERSITY OF CALIFORNIA, priority 2016, published 2023)", "test_system": "INS-1E cells", "assay": "Glucose-stimulated insulin secretion (GSIS) in INS-1E cells", "type": "cell-based, rat", "description": "FIG. 3, comprising FIG. 3A through FIG. 3D, depicts the evaluation of the biological activity of HSA-112 in INS-1E cells. FIG. 3A depicts a dose-response analysis of the effect of HSA-112 on the rate of insulin secretion in INS-1E cells. The INS-1E cells were grown and treated with increasing doses of HSA-112 for 24 h, as described in Methods. Subsequently, cells were mixed with different concentrations of HSA-112, as indicated in the graph (red columns), PEG2000 (green columns), and free peptide (blue columns) and were seeded in 12-well plates. After 24 h the cells were taken to a GSIS in the presence of 2.5 mM (weak color bars) or 16.7 mM (strong color bars) glucose. FIG. 3B depicts the time-course analysis of the effect of HSA-112 on the rate of insulin secretion in INS-1E cells. The INS-1E cells were prepared for the experiment as described above with 50 μM of HSA-112, PEG2000, or free peptide. After incubation, as indicated in the graph, the cells were taken to a GSIS as described above. FIG. 3C depicts the cell protective effect of HSA-112 under oxidative stress conditions. Cells were prepared for the experiment as described in Methods. Trolox was used as a positive control at a concentration of 100 μM. The oxidative stress was induced in the tissue culture, as described in Methods. Standard MTT analysis (also described in Methods) was used for evaluating the effect of HSA-112 on cell viability. FIG. 3D depicts INS-1E cell proliferation. Cells were prepared for the experiment as described above. After 24 h the cells were colored by trypan blue and counted as described in Methods *p<0.05, n=6. MEAN±SE.\nFIG. 7, comprising FIG. 7A through FIG. 7G, depicts the evaluation of the biological activity of HSA-28P in INS-1E cells. FIG. 7A depicts dose-response analysis of the effect of HSA-28P on the rate of insulin secretion in INS-1E cells. The INS-1E cells were grown and trypsinized as described in Methods. Subsequently, cells were mixed with the indicated concentrations of HSA-28P (red columns), non-relevant peptide nanoparticles (NRPNP, green columns), and naked nanoparticles (NP, blue columns) and were seeded in 12-well plates. After 24 h the cells were taken to a GSIS in the presence of 2.5 mM (weak color bars) or 16.7 mM (strong color bars) glucose. FIG. 7B depicts time-course analysis of the effect of HSA-28P on the rate of insulin secretion in INS-1E cells. The INS-1E cells were prepared for the experiment as described above with 1.34 μM of both HSA-28P or NRPNP, and 0.76 μg/ml of NP. After incubation for the time indicated in the graph, the cells were taken to a GSIS as described in Methods. FIG. 7C depicts the measurement of insulin content. The RIA-assay was performed for INS-1E lysates. FIG. 7D depicts the Effect of HSA-28P on the cells viability under oxidative stress conditions. INS-1E cells were incubated for 24 h with a medium supplemented with HSA-28P (3 μM), or HSA-28P1/2 (1.5 μM), or NPs covered by phantom random peptide (PPNP, 3 μM), or NP (0.76 μg/ml), or HSA-28 (3 μM) and trolox, as a positive antioxidant control (1 mM). After the incubation time, 50 mU/ml of glucose oxidase (GO) was added for an additional 1.15 h. Upon completion of the experiments, a standard MTT assay was conducted as described in Methods. Cell viability is presented as a percentage in comparison to non-treated cells. FIG. 7E depicts the effect of HSA-28P on the cell proliferation rate. Experiments were conducted on INS-1E cells that were seeded in 6-well plates. INS-1E cells were treated as described in Panel D. Cells were detached by trypsin and counted as described in Methods and then were visualized with a Cells Sense Live Imaging microscope. FIG. 7F depicts light microscope images of untreated cells. FIG. 7G depicts light microscope images of cells that were treated with HSA-28P. *p<0.05, n=3. MEAN±SE. […]", "note": "Ends that are not written are not given here.", "data": [{"substance": "HSA-112: HSA-28 dimer formed by bridging two HSA-28 monomers via amide bond formation with active ester PEG2,000 (QQGEFLNYD-NH2; not fully specified (N-terminus); also: dimer of two HSA-28 monomers bridged via amide bonds with active ester PEG2000)", "values": [{"measurement": "duration of the increase in insulin secretion", "setting": "50 μM", "value": 24, "unit": "h"}, {"measurement": "time after which a significant increase in insulin secretion was induced", "setting": "50 μM", "value": 6, "unit": "h"}, {"measurement": "time of maximal stimulatory effect", "setting": "50 μM", "value": 18, "unit": "h"}, {"measurement": "maximal stimulatory effect on GSIS parameters", "setting": "50 μM, after 18 h", "value": "twofold elevation of GSIS parameters"}, {"measurement": "effect on GSIS", "setting": "INS-1E cells, 2.5 mM or 16.7 mM glucose", "value": "dose-dependently increased GSIS"}]}]}
